These are literature values, as cited in patent US20140206025A1, “Use Of Detection Of Aspartate Transaminase And Lactate Dehydrogenase In Early Evaluation Of Clinical Efficacy Of Antitumor Intervention Measure” (Beijing Sunbio Biotech Co., Ltd., priority 2011, published 2014).

The data set has as its system tumor cells. Conditions: Cytokin & Growth Factor Reviews 14 (2003) 337-348.

“TRAIL/APO-2L: wild type Tumor necrosis factor-related apoptosis-inducing ligand, acts on Death Receptor 4 and/or 5”: the “induction of apoptosis of tumor cells” value is reported as “selectively induces the apoptosis of multiple tumor cells” and the “toxic effect on normal cells” value was “no obvious toxic effect on normal cells”.
